# Laboratory results from paper PMC5371824, “Phosphatidylinositol (4,5)-bisphosphate dynamically regulates the K2P background K^+ channel TASK-2” (Scientific Reports, 2017).
# Values joined by “and” are separate entries in the source; they are usually repeats but may differ in a detail not shown here. Identical values can stand only once.
# Columns and labels:
# KCNQ1/KCNE1 = test system: KCNQ1/KCNE1; set-up: method as in PMID 21576493; details: read-out: EC50 for PI(4,5)P2 effect; cited from earlier work
# TASK-2 = target: T1, TASK-2 (Mus musculus, UniProt F6V9U5); experiment: Excised inside-out patch recording from HEK-293 cells over-expressing TASK-2; assay type: biochemical
# T1 construct: expressed in transfected cells; host or cells: HEK-293
# T1 sequence (F6V9U5 1-502): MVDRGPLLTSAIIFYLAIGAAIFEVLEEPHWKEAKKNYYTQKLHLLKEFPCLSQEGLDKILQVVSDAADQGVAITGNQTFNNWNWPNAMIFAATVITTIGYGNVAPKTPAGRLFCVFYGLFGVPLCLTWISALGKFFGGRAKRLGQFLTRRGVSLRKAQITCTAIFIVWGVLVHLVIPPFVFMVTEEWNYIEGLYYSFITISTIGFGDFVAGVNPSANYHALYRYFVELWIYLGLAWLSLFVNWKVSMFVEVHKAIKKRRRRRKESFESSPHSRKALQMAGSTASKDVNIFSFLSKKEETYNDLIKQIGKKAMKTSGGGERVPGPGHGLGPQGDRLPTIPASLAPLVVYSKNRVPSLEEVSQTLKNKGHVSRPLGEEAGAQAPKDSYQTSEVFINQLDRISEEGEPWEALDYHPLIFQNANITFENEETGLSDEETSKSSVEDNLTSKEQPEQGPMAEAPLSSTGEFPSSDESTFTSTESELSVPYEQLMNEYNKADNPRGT
# Description: HEK-293 cells were cultured in Dulbecco’s modified Eagle’s medium (DMEM) and F12 Ham’s medium at a 1:1 ratio and supplemented with 10% fetal calf serum at 37 °C in 5% CO2. For electrophysiological experiments, transient transfections were performed by electroporation, using CD8 cotransfection to identify effectively transfected cells. […] Experiments were performed 4–8 h after electroporation.
# Recordings in the inside-out isolated patch configuration were performed in the gap-free mode at −60 mV. The inside aspect of the patch was bathed with a solution containing in mM: 10 KCl, 10 Glucose, 1 MgCl2, 10 EGTA, 1 Na3ATP, 0.1 GTP, 6.8 g/100 ml Sucrose, 10 Hepes/Tris, pH 7.4. The pipette contained in mM: 140 KCl, 10 Glucose, 6.8 g/100 ml Sucrose, 10 Hepes/Tris pH 7.4. For isolated patches, borosilicate capillaries (Harvard Apparatus GC150F-10 1.5 ODx0.86 ID) were fire polished to 4–5 MΩ and covered in beeswax. Acquisition was at 10 kHz with filter at 3 kHz (4-pole Bessel) and analysis was done with Clampfit 9.0 (Axon Instruments, Foster City, CA, USA). Traces shown are prints from crude Clampfit screen shots and quantification was done using the average currents were calculated at intervals using Clampfit after baseline adjustment.
smiles,measurement,setting,value
"CCCCCCCC(=O)OC[C@H](COP(=O)(O)O[C@@H]1[C@H](O)[C@H](O)[C@@H](OP(=O)(O)O)[C@H](OP(=O)(O)O)[C@H]1O)OC(=O)CCCCCCC [PI(4,5)P2, phosphatidylinositol 4,5-bisphosphate diC8]",EC50,KCNQ1/KCNE1,5 µM
same,Effect of readmitted ATP relative to the maximal effect elicited by the PIP,"TASK-2; 1 mM ATP added after PIP, inside-out patches, Fig. S3",1.7 fold
same,Stimulating effect on TASK-2-mediated currents after run-down,"TASK-2; diC8 PIP added to inside-out excised patches, absence of ATP","Robust, but intermediate effects"
same,Maximal fold effect on TASK-2 current (normalised to current in absence of PIP),"TASK-2; diC8 PIP, inside-out patch, -60 mV, absence of ATP, from fits, means ± SEM",3.7 ± 0.2 fold
same,EC50,"TASK-2; diC8 PIP, inside-out patch, -60 mV, absence of ATP, from fits, means ± SEM, read-out: K0.5 (EC50) for activation of TASK-2 current",34.9 µM and 35 µM
